System: T. bisselliella
Experiment: Arena bioassay: captures of moths on sticky traps baited with test or control stimuli
Assay type: in vivo, Tineola bisselliella
Settings: Exps. 29-31; 16:Ester 480 ng plus Z9-16:Ester 840 ng tested together
Description: Tactic responses of T. bisselliella to volatile stimuli from larval habitat were assessed in a closed cylindrical Plexiglas container (125 cm diameter, 60 cm height). Thin cardboard discs (10 cm diameter) coated with Tanglefoot on the upper side were placed on the arena floor 80 cm apart from each other. Platforms suspended above the centre of the coated discs supported randomly assigned test or control stimuli. Control stimuli consisted of cardboard silhouettes visually resembling test stimuli. Per experiment 10 replicates with 25 adult moths each were employed. Moths were released during the scotophase from a Petri dish in the centre of the arena after 30-min of acclimation. After 12 hours of experimental time, moths captured on sticky discs (FIG. 1) were recorded as responders and statistically analysed.
With `CCCCCC/C=C\CCCCCCCC(=O)OC` [(Z)-9-hexadecenoic acid methyl ester] the “trap captures, attraction by synthetic male pheromone components” value was “attracted both male and virgin female T. bisselliella”.
In the case of `CCCCCCCCCCCCCCCC(=O)OC` [hexadecanoic acid methyl ester], the “trap captures, attraction by synthetic male pheromone components” value is reported as “attracted both male and virgin female T. bisselliella”.

Same assay, conditions: Exps. 34-37; tested together in various ratios
In the case of `CCCC/C=C\CCCCCCCCC/C=C/CO` [(E,Z)-2,13:octadecadienol], the “trap captures of males, attraction by synthetic female pheromone components” value is reported as “attracted male T. bisselliella”.
In the case of `CCCC/C=C\CCCCCCCCC/C=C/C=O` [(E,Z)-2,13:octadecadienal], the “trap captures of males, attraction by synthetic female pheromone components” value is reported as “attracted male T. bisselliella”.

Same assay, conditions: geranylacetone (44 ng) and nonanal (3.5 μg) tested together, equivalent quantities; female or male moths
In the case of `CC(=O)CC/C=C(\C)CCC=C(C)C` [geranylacetone], the “trap captures versus dried muskrat pelt” value is reported as “more attractive than natural (muskrat) pelt”.
With `CCCCCCCCC=O` [nonanal] the “trap captures versus dried muskrat pelt” value was “more attractive than natural (muskrat) pelt”.

System: T. bisselliella antenna
Experiment: Coupled gas chromatographic-electroantennographic detection (GC-EAD)
Design: species or system Tineola bisselliella
Settings: male and gravid female T. bisselliella antenna; 5 pelt-min of squirrel pelt volatile extract
Description: Samples of animal pelt (150 cm^2) were aerated for one week in a cylindrical Pyrex glass chamber. A water-aspirator was used to draw charcoal-filtered, humidified air at 2 L/min through the chamber and a glass column (14 cm×13 mm O. D.) filled with Porapak Q. Volatiles captured on Porapak Q were eluted with 5 ml of redistilled pentane and the eluent concentrated to 2 ml by distillation in a 30 cm Dufton column, adjusting the volatile extract so that 2 μl equalled 5 pelt-min of volatile collection. Aliquots of 2.5 pelt-min equivalents of Porapak Q-captured volatile extracts were analysed by coupled gas chromatographic-electroantennographic detection (GC-EAD) (28) (FIG. 2).
FIG. 2 illustrates flame ionization detector (FID) and electroantennographic detector (EAD ♂: male T. bisselliella antenna; EAD ♀: gravid female T. bisselliella antenna) responses to 5 pelt-min of squirrel pelt volatile extract. Chromatography: Hewlett Packard (HP) 5890A gas chromatograph equipped with a fused silica column (30 m×0.25 mm ID) coated with DB-5; linear flow velocity of carrier gas: 35 cm/sec; injector and FID detector temperature: 240° C.; temperature program: 1 min at 50° C., 20° C./min to 70° C. then 7.5° C./min to 280° C. (J & W Scientific, Folsom, Calif. 95630). EAD-active compounds were analyzed by GC-mass spectrometry (MS) in full scan electron impact (EI) and chemical ionization (isobutane) (CI) modes, using a Varian Saturn II Ion Trap GC-MS and a HP 5985B GC-MS. Antennally-active compounds were identified as follows: 1. hexanal (20.0); 2. heptanal (35.0); 3. octanal (55.0); 4. nonanal (80.0); 5. decanal (20.0); 6. dodecanal (4.0); 7. tridecanal (6.0); 8. tetradecanal (5.0); 9. pentadecanal (0.8); 10. hexadecanal (1.0); 11. heptadecanal (0.7); 12. octadecanal (0.1); 13. heptanol (10.0); 14. nonanol (10.0); 15. decanol (12.0); 16. undecanol (200.0); 17. dodecanol (10.0); 18. tridecanol (70.0); 19. tetradecanol (3.0); 20. pentadecanol (2.0); 21. hexadecanol (0.3); 22. heptadecanol (0.5); 23. octadecanol (0.1); 24. tetradecane (20.0); 25. pentadecane (100.0); 26. hexadecane (100.0); 27. eicosane (20.0); 28. uneicosane (0.7); 29.2-undecanal (4.0); 30. E2-nonenal (9.0); 31. E2-decenal (11.0); 32. geranylacetone (1.0). Numbers in brackets refer to nanogram quantities present in 15 pelt-min of aeration of dried, untanned animal pelt (150 cm^2).
The bodies of two hundred 24-48 hour old virgin male T. bisselliella were extracted for 15 min in methanol.
FIG. 6 illustrates flame ionization detector (FID) and electroantennographic detection (EAD: male T. bisselliella antenna) responses to one male equivalent of male T. bisselliella body extract. EAD-active compounds 1-3 were identified by GC-mass spectrometry as 1. hexadecanoic acid methyl ester; 2. (Z)-9-hexadecenoic acid methyl ester; and 3. octadecanoic acid methyl ester. […] Chromatography: Hewlett Packard (HP) 5890A gas chromatograph equipped with a fused silica column (30 m×0.32 mm ID) coated with DB-23 (J & W Scientific, Folsom, Calif. 95630); linear flow velocity of carrier gas: 35 cm/sec; injector and FID detector temperature: 240° C.; temperature program: 1 min at 50° C., 10° C./min to 200° C. EAD-active compounds were identified by GC-mass spectrometry (MS) in full scan electron impact (EI) mode using a Varian Saturn II Ion Trap GC-MS.
Terminal abdominal segments with pheromone glands of one-hundred 12-48 hour-old virgin females were severed and extracted for 5-15 min in hexane.
FIG. 10 illustrates flame ionization detector (FID) and electroantennographic detector (EAD: male T. bisselliella antenna) responses to one female equivalent of female T. bisselliella pheromone gland extract. EAD-active compounds 1-3 were identified as 1. (E,Z)-2,13:octadecadienol (E2,Z13-18:OH) and 2. (E,Z)-2,13:octadecadienal (E2,Z13-18:Ald). […]
With `CCCCCCCCCCCCCCCO` [pentadecanol] the “electroantennographic detector (EAD) response to components of squirrel pelt volatile extract” value (“electroantennographic detector” for short) was “Antennally-active”.
In the case of `CCCCCCC/C=C/C=O` [E2-decenal], the “electroantennographic detector” value is reported as “Antennally-active”.
In the case of `CCCCCCCCCCCCCCCCCO` [heptadecanol], the “electroantennographic detector” value is reported as “Antennally-active”.
For `CCCCCCC=O` [heptanal], the “electroantennographic detector” value was “Antennally-active”.
For `CCCCCCCCCCCCCCC` [pentadecane], the “electroantennographic detector” value was “Antennally-active”.
In the case of `CCCCCCCCCCCCC=O` [tridecanal], the “electroantennographic detector” value is reported as “Antennally-active”.
In the case of `CCCCCCCCCO` [nonanol], the “electroantennographic detector” value is reported as “Antennally-active”.
In the case of `CCCCCCCCCCO` [decanol], the “electroantennographic detector” value is reported as “Antennally-active”.
In the case of `CCCCCCCCCCCCCC` [tetradecane], the “electroantennographic detector” value is reported as “Antennally-active”.
In the case of `CCCCCCCCCCCO` [undecanol], the “electroantennographic detector” value is reported as “Antennally-active”.
With `CCCCCCCCCCCCCCCCCCCC` [eicosane] the “electroantennographic detector” value was “Antennally-active”.
With `CCCCCCCCCCCCCC=O` [tetradecanal] the “electroantennographic detector” value was “Antennally-active”.
For `CCCCCCCCCCCCO` [dodecanol], the “electroantennographic detector” value was “Antennally-active”.
With `CCCCCCCCCCCC=O` [dodecanal] the “electroantennographic detector” value was “Antennally-active”.
In the case of `CCCCCCCCCC(C)=O` [2-undecanal], the “electroantennographic detector” value is reported as “Antennally-active”.
For `CCCCCCCCCCCCCCCCO` [hexadecanol], the “electroantennographic detector” value was “Antennally-active”.
For `CC(=O)CC/C=C(\C)CCC=C(C)C` [geranylacetone], the “electroantennographic detector” value was “Antennally-active”.
For `CCCCCCCCC=O` [nonanal], the “electroantennographic detector” value was “Antennally-active”.
With `CCCCCCCCCCCCCO` [tridecanol] the “electroantennographic detector” value was “Antennally-active”.
In the case of `CCCCCC=O` [hexanal], the “electroantennographic detector” value is reported as “Antennally-active”.
With `CCCCCCCCCCCCCCO` [tetradecanol] the “electroantennographic detector” value was “Antennally-active”.
For `CCCCCCCC=O` [octanal], the “electroantennographic detector” value was “Antennally-active”.
In the case of `CCCCCCCCCCCCCCCCCCCCC` [uneicosane], the “electroantennographic detector” value is reported as “Antennally-active”.
With `CCCCCCCCCCCCCCCC=O` [hexadecanal] the “electroantennographic detector” value was “Antennally-active”.
With `CCCCCCCCCCCCCCCC` [hexadecane] the “electroantennographic detector” value was “Antennally-active”.
For `CCCCCCCCCCCCCCCCC=O` [heptadecanal], the “electroantennographic detector” value was “Antennally-active”.
With `CCCCCCCCCCCCCCC=O` [pentadecanal] the “electroantennographic detector” value was “Antennally-active”.
In the case of `CCCCCCCCCC=O` [decanal], the “electroantennographic detector” value is reported as “Antennally-active”.
With `CCCCCCCCCCCCCCCCCCO` [octadecanol] the “electroantennographic detector” value was “Antennally-active”.
With `CCCCCCCCCCCCCCCCCC=O` [octadecanal] the “electroantennographic detector” value was “Antennally-active”.
With `CCCCCCCO` [heptanol] the “electroantennographic detector” value was “Antennally-active”.
In the case of `CCCCCC/C=C/C=O` [E2-nonenal], the “electroantennographic detector” value is reported as “Antennally-active”.

Same assay, conditions: male antenna, one female equivalent
In the case of `CCCC/C=C\CCCCCCCCC/C=C/CO` [(E,Z)-2,13:octadecadienol], the “EAD response to components of female T. bisselliella pheromone gland extract” value is reported as “EAD-active”.
For `CCCC/C=C\CCCCCCCCC/C=C/C=O` [(E,Z)-2,13:octadecadienal], the “EAD response to components of female T. bisselliella pheromone gland extract” value was “EAD-active”.

Same assay, conditions: male antenna, one male equivalent; similar responses with female antennae
In the case of `CCCCCCCCCCCCCCCCCC(=O)OC` [octadecanoic acid methyl ester], the “EAD response to components of male T. bisselliella body extract” value is reported as “EAD-active”.
With `CCCCCC/C=C\CCCCCCCC(=O)OC` [(Z)-9-hexadecenoic acid methyl ester] the “EAD response to components of male T. bisselliella body extract” value was “EAD-active”.
In the case of `CCCCCCCCCCCCCCCC(=O)OC` [hexadecanoic acid methyl ester], the “EAD response to components of male T. bisselliella body extract” value is reported as “EAD-active”.

System: T. bisselliella
Experiment: not given
Settings: literature refs 16, 17; cited from earlier work
For `CCCCCCCCCCCCCCC/C=C/C=O` [E2-octadecenal, reference compound], the “attractiveness as reported sex pheromone components” value is listed as “only moderately attractive”.
For `CCCC/C=C\CCCCCCCCC/C=C/C=O` [(E,Z)-2,13:octadecadienal], the “attractiveness as reported sex pheromone components” value is listed as “only moderately attractive”.

— US6574913B2, “Semiochemical and sonic signals for monitoring and control of clothes moths” (priority 2001, dated 2003)
